Results: US10201530B2, “Treatment of BRCA1-defective cancer or resistant cancers” (City of Hope, priority 2014, dated 2019)

Experiments:
[1] = system: γ-H2AX, phospho-p53, phospho-ATM, foxo3, Rad51, BRCA1; assay: DDR-associated proteins in A549 cells (Western blot, immunofluorescence); type: cell-based, human
Protocol: Immunofluorescence experiments were conducted as described previously (21,22). Specifically, A549 cells were grown on glass coverslips. After treatment with COH29 (1 or 10 μM) for 24 or 48 hours, cells were fixed with 4% paraformaldehyde for 10 min and permeabilizsd with TRITON™ X-100 (0.5%). The coverslips were washed with phosphate-buffered saline (PBS) and blocked with PBS-containing 2% bovine serum albumin (BSA), incubated with an Ab specific to FOXO3 or ATM-pS1981 or γ-H2AX or p53-pS15 (1:50-1:200 dilution), followed by Alexa 488-conjugated anti-rabbit or anti-mouse (1:200). Alexa 594-conjugated anti-goat (1:100) secondary Abs (Molecular Probes). Cells were incubated with 4′,6-diamidino-2-phenylindole (DAP1; Sigma) to stain the nuclei. Specific staining was visualized and images were captured with a Leica SF2 AOBS confocal laser scanning microscope. To measure foci-positive cells, we used ˜300 cells randomly captured by confocal microscopy. The percentages of considering foci-positive cells were calculated from cells containing at least five foci. Each error bar presented is the mean of standard deviation.
For subcellular fractionation, cells were trypsinized and washed with cold PBS solution twice. After centrifugation at 1,200 g for 5 min, cells were incubated in buffer (50 mM HEPES, pH 7.5, 150 mM NaCl, 1 mM EDTA) containing 0.2% NONIDET™ P-40 (NP-40), supplemented with protease inhibitors (5 μg/ml each of pepstatin, leupeptin, and aprotinin) and phosphatase inhibitors on ice for 5 min. Following centrifugation at 1,000 g for 5 min, the supernatant was collected (i.e., cytoplasmic fraction) and pellets were washed with the same buffer twice. The washed samples were extracted for 40 min on ice with fractionation buffer containing 0.5% NP-40 for nuclear fraction. All the samples were sonicated and clarified by centrifugation at 16,000 g for 15 min. Protein concentrations of all fractions were determined with Bio-Rad Protein Assay (Bio-Rad Laboratories, Hercules, Calif.). Immunoblotting was performed as described previously (21,22). Briefly, equal amounts of boiled protein samples were subjected to SDS-polyacrylamide gel electrophoresis (PAGE) and transferred onto nitrocellulose membranes (Bio-Rad Laboratories). Membranes were blocked for 1 hour in 3% BSA in Tris buffered saline containing 0.05% Tween 20 (TBST) and incubated for 1 hour with primary antibody (1:500 or 1:1000) diluted in TBST containing 1% BSA. After two washes with TBST, membranes were incubated for 1 hour with horseradish peroxidase-conjugated secondary Abs (1:3000 dilution) at room temperature. The immunoblots were visualized on film with the West-Q chemi-luminescence kit (GenDEPOT, Barker, Tex.).

[2] = system: multiple human cancer cell lines; details: in most cases; cited from earlier work
HCC1937+BRCA1 tumors = assay: Orthotopic tumor explant model, HCC1937+BRCA1; type: in vivo; details: HCC1937+BRCA1 tumors in NSG mice, daily oral 400 mg/kg; p=0.1577
Protocol: Experiments in mice were conducted under a protocol approved by the IACUC of City of Hope. Because HCC1937 and HCC1937+BRCA1 cells from slow-growing tumors, they were implanted using MATRIGEL™ (Becton-Dickinson Biosciences). To establish tumors 4×10^6 cells in 200 μL serum-free medium containing 50% MATRIGEL™ were injected into the mammary fat pads around the inguinal area of a pair of 8 week old female NSG mice. Once the initial tenors reached 13 mm in diameter, they were dissected out minced into 3 mm pieces and implanted into the inguinal area of the mammary fat pads of the experimental mice Tumors were measured over a 28-day period, and for each time point, the student t-test was used to determine the statistical significance between daily gavage with 400 mg/kg COH29 in 30% solutol and corresponding vehicle control. The p value less than 0.05 (2 sides) was considered to indicate statistical significance

UWB1.289 = assay: Cytotoxicity, UWB1.289 cells; type: cell-based, human; details: Homo sapiens, UWB1289; UWB1.289, BRCA1-defective ovarian cancer cells; COH29 72 h; read-out: IC50, mean ± SEM
Protocol: All cell lines were acquired from the American Type Culture Collection (Manassas, Va., USA). Cells were maintained in RPMI 1640 medium (Mediatech) with 10% fetal bovine serum, 2 mM glutamine, and 100 U of penicillin and 100 μg of streptomycin per ml of medium (Sigma) at 37° C. in 5% CO2. To isolate HCC1437+BRCA1 cells, parental HCC1937 cells were transfected with pcDNA3.1 plasmid expressing full-length BRCA1 cDNA. Stable transfectant clones were selected and used for drug sensitivity assays. For stable transfection, cells at 30-40% confluence were incubated overnight with […] of plasmid DNA, using FUGENE® 6 transfectin reagent (Roche Molecular Biochemical, Monza, Italy) according to the manufacturer's instructions. Cells were then selected in puromycin (1 μg/ml) (Invitrogen life Technologies, La Jolla, Calif., USA.) After 20 to 30 days, viable puromycin-resistant colonies from HCC1937 transfections were expanded and screened. The clones that stably expressed […] and retained growth potential were assayed for BRCA1 expression by Western blot analysis. By Western blot analysis, we evaluated the restoration of BRCA1 expression in the puromycin-resistant cDNA/transfectant cells.
The MTT cytotoxicity assay was performed by incubating with MTT and monitoring the MTT formazan formed by viable cells with a microplate reader at a wavelength of 560 nm; the survival, ratio was determined using the formula: (Atest−Ablank)/(Acontrol−Ablank)×100%. The cytotoxicity was determined in 96-well plates using the semiautomatic fluorescence-based Digital Imaging Microscopy System (DIMSCAN). DIMSCAN uses digital imaging microscopy to quantify viable cells, which selectively accumulate FDA (fluorescein diacetate; Alfa Aesar, Ward Hill, Mass.). DIMSCAN is capable of measuring cytotoxicity over a 4 log dynamic range by quantifying total fluorescence per well (which is proportional to the number of viable cells) after elimination of the background fluorescence by digital thresholding and eosin Y (Mallinckrodt Baker, Center Valley, Pa.) quenching. Cells were seeded into 96-well plates in 100 μL of complete medium at 2,000 to 5,000 cells per well depending on cell line growth rate. After overnight incubation, test compound was added to each well at various concentrations in 50 μL of culture medium. […] Total fluorescence per well was then measured using DIMSCAN, and the results were expressed as the ratio of the fluorescence in treated wells to the fluorescence in untreated wells (survival fraction).

**Q.** For O=C(Nc1nc(-c2ccc(O)c(O)c2)c(-c2ccccc2)s1)c1ccc(O)c(O)c1 [COH29], which “nuclear γ-H2AX, phospho-p53, phospho-ATM” value ([1]; A549 BRCA1 wild-type NSCLC cells, 48 h) is on record?
**A.** induced accumulation of γ-H2AX, phospho-p53, and phospho-ATM in the nucleus

**Q.** And the “nuclear foxo3 and p27” value ([1]; A549 cells)?
**A.** induction of foxo3 and its target protein p27 in the nucleus

**Q.** What about the “BRCA1 protein level and Rad51 foci formation” value ([1]; A549 cells, 24 h) of the same compound?
**A.** suppressed the protein level of BRCA1 and Rad51 foci formation

**Q.** What about the “Rad51 expression, Western analysis” value ([1]; nucleus of A549 cells) of the same compound?
**A.** downregulated in the nucleus

**Q.** What about the IC50 [2] of the same compound?
**A.** < 10 µM

**Q.** And the “tumor size compared to vehicle controls” value (HCC1937+BRCA1 tumors)?
**A.** not significantly smaller

**Q.** What about the IC50 (UWB1.289) of the same compound?
**A.** 12.3 ± 1.15 µM
